US20100120843A1, “PHARMACEUTICAL COMPOSITION FOR TREATING ALCOHOL-INDUCED LIVER INJURY COMPRISING (4S,5S)-5-FLUOROMETHYL-5-HYDROXY-4-(AMINO)-DIHYDROFURAN-2-ONE OR PHARMACEUTICALLY ACCEPTABLE SALT THEREOF” (LG Life Sciences Ltd., priority 2008, published 2010)

Assays:
caspase-8 = target: T1, caspase-8 (Rattus norvegicus, UniProt Q9JHX4); assay: Fluorometric assay of caspase-8 activity in cellular extraction of liver tissue; type: in vivo; conditions: EtOH diet with CF1 10 mg/kg oral daily, 12 weeks, LPS 1 mg/kg i.p. 8 h before sacrifice; FIG. 2
T1 construct: the activities of caspase-3 and caspase-8 were assayed in cellular extraction of liver tissue; from tissue; host or cells: liver of Sprague-Dawley rats dosed orally with CF1
T1 sequence (Q9JHX4 219-378 limits assumed): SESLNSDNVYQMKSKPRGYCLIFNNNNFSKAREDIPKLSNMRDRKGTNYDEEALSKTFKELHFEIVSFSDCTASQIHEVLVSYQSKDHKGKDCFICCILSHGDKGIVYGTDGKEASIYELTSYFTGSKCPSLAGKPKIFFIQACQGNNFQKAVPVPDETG
T1 sequence (Q9JHX4 389-482 limits assumed): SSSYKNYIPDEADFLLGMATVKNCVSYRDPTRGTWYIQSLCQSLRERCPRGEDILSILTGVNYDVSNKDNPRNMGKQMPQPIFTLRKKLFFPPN
Excerpt: (§1) Male Sprague-Dawley rats (5 weeks of age, 170 g of body weight) were divided into four experimental groups: control diet group, control diet with CF1 group, ethanol (EtOH) diet group and EtOH diet with CF1 group. Control diet group, control diet with CF1 group, EtOH diet group, and EtOH diet with CF1 group were fed, respectively, with Lieber-Decarli control diet, Lieber-Decarli control diet and CF1, Lieber-Decarli liquid diet containing 6% ethanol, and Lieber-Decarli liquid diet containing 6% ethanol and CF1 for 12 weeks. CF1 was dissolved in PEG (polyethylene glycol) 400 and 5% ethanol solution (PEG 400:ethanol=2:1), and administered daily at 10 mg/kg by oral gavage. About 8 hours prior to rats' sacrifice, lipopolysaccharide (LPS) was intraperitoneally injected to increase the liver injury in the amount of 1 mg/kg.
(§2) To investigate the role of caspase in alcohol-induced liver injury, the activities of caspase-3 and caspase-8 were assayed in cellular extraction of liver tissue. The activities of caspase-3 and caspase-8 were assayed by using EnzChek™ Caspase Assay Kit molecular Probes, USA) according to the manufacturer's instructions.

apoptosis of liver cell = assay: TUNEL staining of liver tissue (apoptosis of liver cell); type: in vivo, rat
Excerpt: as §1
To investigate apoptosis of liver cell according to alcohol ingestion, TUNEL staining was processed. TUNEL staining was carried out using in situ Cell Death Detection Kit (Roche Diagnostics, Germany) according to the manufacturer's instructions.
Stained tissue was photographed at 100 times magnification (FIG. 5). TUNEL positive cells per field were calculated.

liver = assay: Histological assessment of liver (H&E and Masson's trichrome); type: in vivo, rat
Excerpt: as §1
The extracted livers were fixed by 10% neutral formalin in PBS (phosphate buffered saline). Then, a paraffin section of 4 μm thickness was prepared, and stained with H&E (Hematoxylin & Eosin) and Masson's trichrome. The stained tissue was photographed at 100 times magnification (FIGS. 4A and 4B).

[1] = Determination of serum liver enzymes (AST, ALT) in association with liver injury; type: in vivo, rat; conditions: 12 weeks
Excerpt: as §1
Liver injury was assessed by a biochemical assay of liver enzyme. After the 12 weeks' experiment, the blood samples were obtained from all rats' heart. Serum aspartate transaminase (AST) and alanine transaminase (ALT) values were analyzed for 100 μl of plasma from each blood sample with Hitachi 7050 automatic analyzer (Hitachi, Japan).

caspase-3 = target: T2, caspase-3 (Rattus norvegicus, UniProt P55213); assay: Fluorometric assay of caspase-3 activity in cellular extraction of liver tissue; type: in vivo; conditions: EtOH diet with CF1 10 mg/kg oral daily, 12 weeks, LPS 1 mg/kg i.p. 8 h before sacrifice; FIG. 1
T2 construct: the activities of caspase-3 and caspase-8 were assayed in cellular extraction of liver tissue; from tissue; host or cells: liver of Sprague-Dawley rats dosed orally with CF1
T2 sequence (P55213 29-175 limits assumed): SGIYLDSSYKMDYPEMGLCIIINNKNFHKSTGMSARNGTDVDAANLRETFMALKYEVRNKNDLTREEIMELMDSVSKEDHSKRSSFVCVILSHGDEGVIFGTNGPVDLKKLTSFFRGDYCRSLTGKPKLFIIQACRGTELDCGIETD
T2 sequence (P55213 176-277 limits assumed): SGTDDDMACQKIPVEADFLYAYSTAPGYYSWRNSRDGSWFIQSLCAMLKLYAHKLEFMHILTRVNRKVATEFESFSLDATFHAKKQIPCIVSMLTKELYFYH
Excerpt: as §1, §2

With `CC(C)[C@@]1(C(=O)N[C@H]2CC(=O)O[C@]2(O)CF)CC(c2nccc3ccccc23)=NO1` [CF1, (4S,5S)-5-fluoromethyl-5-hydroxy-4-({[(5R)-5-isopropyl-3-(isoquinolin-1-yl)-4,5-dihydro-5-isoxazolyl]carbonyl}amino)-dihydrofuran-2-one] the “caspase-8 activity in liver tissue” value (caspase-8) was “decreased to the level of control group”, the “TUNEL positive cells per field” value (apoptosis of liver cell; Alcohol diet with CF1 10 mg/kg oral daily, 12 weeks, alcohol diet group 25.14±9.14, control diet group 10.3±1.9) was 6.4±1.1 TUNEL positive cells/field and the TUNEL positive cells (apoptosis of liver cell; Control diet with CF1 group, FIGS. 5 and 6) was “rarely observed”. The “Hepatic fibrosis (Masson's trichrome)” value (liver; Alcohol diet with CF1 compared with control diet groups, no statistical significance, FIG. 4B) was “some progression of hepatic fibrosis”, the “Fatty liver (H&E staining)” value (liver; Alcohol diet with CF1 vs alcohol diet group, FIG. 4A) was “inhibited the increase of fatty liver” and the “Serum alanine transaminase (ALT)” value ([1]; Alcohol diet with CF1 10 mg/kg oral daily, alcohol diet group 336±163 IU/L) was 120±10 IU/L. The “Serum aspartate transaminase (AST)” value ([1]; Alcohol diet with CF1 10 mg/kg oral daily, alcohol diet group 454±175 IU/L) was 194±22 IU/L, the “Serum AST and ALT values compared with control diet group” value ([1]; Control diet with CF1 10 mg/kg oral daily, FIG. 3) was “did not show significant change” and the “caspase-3 activity in liver tissue” value (caspase-3) was “decreased to the level of control group”.
